In experiment [1] the test system is mitochondrial transcription (7S RNA) in HeLa cells. The experiment can be described thus: Quantitative real time-PCR assay of inhibition of mitochondrial transcription (7S RNA) in HeLa cells. Conditions: Homo sapiens, 4 h compound incubation, according to Example 5, read-out: cellular qPCR assay. In kind it is cell-based. The method, boiled down: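 HeLa cells were exposed to compound dilution series or DMSO for 4 h, then RNA was extracted, normalized and reverse-transcribed. TaqMan qRT-PCR measured short-lived 7S RNA, with POLRMT as nuclear-transcription readout and TBP as housekeeping gene. Biological triplicates were analyzed by ΔΔCt and reported as Rq % (2−ΔΔCt).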
(In general: In qPCR the cycle at which signal appears reflects the starting amount.)

Experiment [2] deals with mitochondrial RNA polymerase (POLRMT) (Mus musculus, UniProt Q8BKF1). The experiment can be described thus: Homogeneous TR-FRET assay for mitochondrial transcription activity. In kind it is biochemical. Conditions: homogeneous TR-FRET assay according to Example 4. Put shortly: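 Read-out is TR-FRET (ex 340, em 665 nm) from two adjacent labelled DNA probes annealing to the 407 bp transcript after EDTA/700 mM NaCl stop. Reaction: murine POLRMT, TFAM, TFB2M and LSP plasmid template, compound 10 μM or serial dilution, 10 min rt preincubation, 500 μM each nucleotide, 2 h rt.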

Structures are written as SMILES.

Sequence of mitochondrial RNA polymerase (POLRMT) (Q8BKF1 42-1207): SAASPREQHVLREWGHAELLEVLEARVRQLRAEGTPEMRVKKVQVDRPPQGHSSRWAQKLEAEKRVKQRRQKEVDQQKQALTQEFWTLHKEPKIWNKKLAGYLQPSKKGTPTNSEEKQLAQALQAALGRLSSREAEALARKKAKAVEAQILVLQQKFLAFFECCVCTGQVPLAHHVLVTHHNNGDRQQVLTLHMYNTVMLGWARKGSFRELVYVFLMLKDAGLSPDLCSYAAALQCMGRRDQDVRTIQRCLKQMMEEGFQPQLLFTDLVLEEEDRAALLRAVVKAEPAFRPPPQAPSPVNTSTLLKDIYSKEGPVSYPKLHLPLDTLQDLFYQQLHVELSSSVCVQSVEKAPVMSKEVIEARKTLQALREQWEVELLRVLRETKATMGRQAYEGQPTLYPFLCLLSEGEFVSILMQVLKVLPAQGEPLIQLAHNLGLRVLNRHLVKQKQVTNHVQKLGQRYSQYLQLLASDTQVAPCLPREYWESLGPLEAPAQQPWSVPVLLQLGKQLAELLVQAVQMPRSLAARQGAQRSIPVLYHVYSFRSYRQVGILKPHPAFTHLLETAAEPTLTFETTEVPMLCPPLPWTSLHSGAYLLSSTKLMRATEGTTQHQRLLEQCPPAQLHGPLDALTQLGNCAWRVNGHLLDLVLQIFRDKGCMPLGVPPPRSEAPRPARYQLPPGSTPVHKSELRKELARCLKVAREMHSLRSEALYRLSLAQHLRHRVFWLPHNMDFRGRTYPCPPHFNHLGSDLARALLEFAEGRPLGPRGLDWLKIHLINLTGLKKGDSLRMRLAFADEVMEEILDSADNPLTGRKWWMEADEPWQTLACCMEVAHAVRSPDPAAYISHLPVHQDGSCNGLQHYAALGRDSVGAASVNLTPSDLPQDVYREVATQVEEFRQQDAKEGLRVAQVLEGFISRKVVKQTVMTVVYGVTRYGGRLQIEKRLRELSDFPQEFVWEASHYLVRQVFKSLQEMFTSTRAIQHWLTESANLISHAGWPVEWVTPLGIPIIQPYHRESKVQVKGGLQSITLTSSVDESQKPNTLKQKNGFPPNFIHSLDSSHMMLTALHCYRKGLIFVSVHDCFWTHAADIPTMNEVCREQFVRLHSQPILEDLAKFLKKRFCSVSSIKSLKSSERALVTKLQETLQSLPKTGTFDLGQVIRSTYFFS

Take `C[C@@H](Oc1ccc2c(-c3c(Cl)cc(F)cc3Cl)ccnc2c1)C(=O)N1CCOCC1` [Compound 201, (2R)-2-[[4-(2,6-dichloro-4-fluoro-phenyl)-7-quinolyl]oxy]-1-morpholino-propan-1-one]: the IC50 in experiment [1] was 10 to 50 nM; in experiment [2], 100 to 1000 nM.
Take `C[C@@H](Oc1ccc2c(-c3c(Cl)cc(F)cc3Cl)ccnc2c1)C(=O)N1CCC2(CCNC2=O)CC1` [Compound 202, 8-[(2R)-2-[[4-(2,6-dichloro-4-fluoro-phenyl)-7-quinolyl]oxy]propanoyl]-2,8-diazaspiro[4.5]decan-1-one]: the IC50 in experiment [1] lay in the range of 10 to 50 nM; in experiment [2], 100 to 1000 nM.
Turning to `C[C@@H]1CCCCN1C(=O)[C@@H](C)Oc1ccc2c(-c3c(Cl)cc(F)cc3Cl)ccnc2c1` [Compound 204, (2R)-2-[[4-(2,6-dichloro-4-fluoro-phenyl)-7-quinolyl]oxy]-1-[(2R)-2-methyl-1-piperidyl]propan-1-one], the figures for the IC50 in experiment [1] and in experiment [2] were 10 to 50 nM and 100 to 1000 nM, respectively.
Take `C[C@@H](Oc1ccc2c(-c3ccc(F)cc3Cl)ccnc2c1)C(=O)N1CCC2(CCNC2=O)CC1` [Compound 205, 8-[(2R)-2-[[4-(2-chloro-4-fluoro-phenyl)-7-quinolyl]oxy]propanoyl]-2,8-diazaspiro[4.5]decan-1-one]: the figures for the IC50 in experiment [1] and in experiment [2] were 10 to 50 nM and 100 to 1000 nM, respectively.
Consider `C[C@@H](Oc1ccc2c(-c3ccc(F)cc3Cl)ccnc2c1)C(=O)N1CCOCC1` [Compound 206, (2R)-2-[[4-(2-chloro-4-fluoro-phenyl)-7-quinolyl]oxy]-1-morpholino-propan-1-one], for which the IC50 in experiment [1] fell in the range of 10 to 50 nM; in experiment [2], 100 to 1000 nM.
As for `C[C@@H](Oc1ccc2c(-c3ccc(F)cc3Cl)ccnc2c1)C(=O)N1CCCC(C2(O)CC2)C1` (stereo partly drawn) [Compound 207, (2R)-2-[[4-(2-chloro-4-fluoro-phenyl)-7-quinolyl]oxy]-1-[3-(1-hydroxycyclopropyl)-1-piperidyl]propan-1-one], the IC50 in experiment [1] is < 10 nM; in experiment [2] it was 100 to 1000 nM.
Take `C[C@@H](Oc1ccc2c(-c3c(Cl)cc(F)cc3Cl)ccnc2c1)C(=O)N1CCC2(CC1)COC2` [Compound 208, (2R)-2-[[4-(2,6-dichloro-4-fluoro-phenyl)-7-quinolyl]oxy]-1-(2-oxa-7-azaspiro[3.5]nonan-7-yl)propan-1-one]: the IC50 in experiment [1] is 10 to 50 nM; in experiment [2] it was 100 to 1000 nM.
The corresponding values for `CC(=O)N(O)[C@H]1CCCN(C(=O)[C@@H](C)Oc2ccc3c(-c4ccc(F)cc4Cl)ccnc3c2)C1` [Compound 209, N-hydroxy-N-[(3S)-1-[(2R)-2-[[4-(2-chloro-4-fluoro-phenyl)-7-quinolyl]oxy]propanoyl]-3-piperidyl]acetamide] are 10 to 50 nM and 100 to 1000 nM.
As for `C[C@@H](Oc1ccc2c(-c3ccc(F)cc3Cl)ccnc2c1)C(=O)N1CCC2(CC1)COC2` [Compound 210, (2R)-2-[[4-(2-chloro-4-fluoro-phenyl)-7-quinolyl]oxy]-1-(2-oxa-7-azaspiro[3.5]nonan-7-yl)propan-1-one], the IC50 lay in the range of 10 to 50 nM in experiment [1] and 100 to 1000 nM in experiment [2].
Consider `CC1CCCC(C)N1C(=O)[C@@H](C)Oc1ccc2c(-c3ccc(F)cc3Cl)ccnc2c1` (stereo partly drawn) [Compound 211, (2R)-2-[[4-(2-chloro-4-fluoro-phenyl)-7-quinolyl]oxy]-1-(2,6-dimethyl-1-piperidyl)propan-1-one], for which the IC50 in experiment [1] fell in the range of 10 to 50 nM; in experiment [2], 100 to 1000 nM.
Take `C[C@@H](Oc1ccc2c(-c3ccc(F)cc3Cl)ccnc2c1)C(=O)N1CCCC2(COC2)C1` [Compound 212, (2R)-2-[[4-(2-chloro-4-fluoro-phenyl)-7-quinolyl]oxy]-1-(2-oxa-8-azaspiro[3.5]nonan-8-yl)propan-1-one]: the IC50 is < 10 nM in experiment [1] and 100 to 1000 nM in experiment [2].
On to `C[C@@H](Oc1ccc2c(-c3ccc(F)cc3Cl)ccnc2c1)C(=O)N1CCC2(COC2)C1` [Compound 213, (2R)-2-[[4-(2-chloro-4-fluoro-phenyl)-7-quinolyl]oxy]-1-(2-oxa-7-azaspiro[3.4]octan-7-yl)propan-1-one], for which the IC50 in experiment [1] lay in the range of 50 to 500 nM; in experiment [2], 100 to 1000 nM.
For `C[C@@H](Oc1ccc2c(-c3ccc(F)cc3Cl)ccnc2c1)C(=O)N1CC[C@@H](NC(=O)NC(C)(C)C)C1` [Compound 214, 1-tertbutyl-3-[(3R)-1-[(2R)-2-[[4-(2-chloro-4-fluoro-phenyl)-7-quinolyl]oxy]propanoyl]pyrrolidin-3-yl]urea], the IC50 in experiment [1] lay in the range of 50 to 500 nM; in experiment [2], 100 to 1000 nM.
Turning to `C[C@@H](Oc1ccc2c(-c3ccc(F)cc3Cl)ccnc2c1)C(=O)N1CC(C)(C)NC(C)(C)C1` [Compound 215, (2R)-2-[[4-(2-chloro-4-fluoro-phenyl)-7-quinolyl]oxy]-1-(3,3,5,5-tetramethylpiperazin-1-yl)propan-1-one], the IC50 in experiment [1] was in the range of 50 to 500 nM; in experiment [2] it was 100 to 1000 nM.
The like results for `CC1CN(C(=O)[C@@H](C)Oc2ccc3c(-c4ccc(F)cc4Cl)ccnc3c2)CC(C)N1` (stereo partly drawn) [Compound 216, (2R)-2-[[4-(2-chloro-4-fluoro-phenyl)-7-quinolyl]oxy]-1-(3,5-dimethylpiperazin-1-yl)propan-1-one] were, in that order, 50 to 500 nM and 100 to 1000 nM.
With `C[C@@H](Oc1ccc2c(-c3ccc(F)cc3Cl)ccnc2c1)C(=O)N1CCC=C(C(=O)O)C1` [Compound 219, 1-[(2R)-2-[[4-(2-chloro-4-fluoro-phenyl)-7-quinolyl]oxy]propanoyl]-3,6-dihydro-2H-pyridine-5-carboxylic acid], the IC50 in experiment [1] is 50 to 500 nM; in experiment [2], 20 to 100 nM.
Turning to `C[C@@H](Oc1ccc2c(-c3c(Cl)cc(F)cc3Cl)ccnc2n1)C(=O)N1CCC[C@H](CC(=O)O)C1` [Compound 220, 2-[(3R)-1-[(2R)-2-[[5-(2,6-dichloro-4-fluoro-phenyl)-1,8-naphthyridin-2-yl]oxy]propanoyl]-3-piperidyl]acetic acid], the results for the IC50 in experiment [1] and in experiment [2] were < 10 nM and 20 to 100 nM, respectively.
Turning to `Cc1cc(F)cc(C)c1-c1ccnc2nc(O[C@H](C)C(=O)N3CCC[C@H](CC(=O)O)C3)ccc12` [Compound 221, 2-[(3R)-1-[(2R)-2-[[5-(4-fluoro-2,6-dimethyl-phenyl)-1,8-naphthyridin-2-yl]oxy]propanoyl]-3-piperidyl]acetic acid], the results for the IC50 in experiment [1] and in experiment [2] were < 10 nM and < 20 nM, respectively.
